We go through eight compounds from ChEMBL document CHEMBL3272212, “Synthesis and antimineralocorticoid activities of some 6-substituted 7 alpha-carboalkoxy steroidal spirolactones” (1977).

Common to all, as to format: functional, Urine
For assay [1], the system named is Rattus norvegicus. Description: Inhibition of deoxycorticosterone acetate-induced urinary electrolyte effects in sc dosed adrenalectomized rat assessed as increase in Na:K ratio.
The test system of assay [2] is Rattus norvegicus. Description: Inhibition of deoxycorticosterone acetate-induced urinary electrolyte effects in intragastrically dosed adrenalectomized rat assessed as increase in Na:K ratio.
Assay [3] deals with Rattus norvegicus. Kind of assay: Ratio of MED for Inhibition of deoxycorticosterone acetate-induced urinary electrolyte effects in intragastrically dosed adrenalectomized rat to MED for deoxycorticosterone acetate-induced urinary electrolyte effects in sc dosed adrenalectomized rat.

Molecules are shown by their SMILES.

Take `COC(=O)[C@H]1[C@@H]2[C@H](CC[C@@]3(C)[C@H]2CC[C@@]32CCC(=O)O2)[C@@]2(C)CCC(=O)C=C2[C@@H]1O`: the MED with Rattus norvegicus [1] is 0.42 mg; with Rattus norvegicus [2] it was 2.12 mg.
Regarding `[2H][C@H]1C2=CC(=O)CC[C@]2(C)[C@H]2CC[C@@]3(C)[C@@H](CC[C@@]34CCC(=O)O4)[C@@H]2[C@@H]1C(=O)OC`, the results for the MED with Rattus norvegicus [1] and in the assay with Rattus norvegicus [2] were 0.3 mg and 1 mg, respectively.
For the compound `COC(=O)[C@H]1[C@@H]2[C@H](CC[C@@]3(C)[C@H]2CC[C@@]32CCC(=O)O2)[C@@]2(C)CCC(=O)C=C2[C@@H]1Br`, the MED in the assay on Rattus norvegicus [1] stood at 0.58 mg; in the assay on Rattus norvegicus [2], 1.05 mg.
For `COC(=O)[C@H]1[C@@H]2[C@H](CC[C@@]3(C)[C@H]2CC[C@@]32CCC(=O)O2)[C@@]2(C)CCC(=O)C=C2[C@@H]1C`, the MED with Rattus norvegicus [1] amounted to 0.2 mg; in the assay on Rattus norvegicus [2], 0.58 mg.
As for `CC(C)OC(=O)[C@H]1[C@@H]2[C@H](CC[C@@]3(C)[C@H]2CC[C@@]32CCC(=O)O2)[C@@]2(C)CCC(=O)C=C2[C@@H]1O`, the figures for the MED in the assay with Rattus norvegicus [1] and in the assay with Rattus norvegicus [2] were 0.28 mg and 1.81 mg, respectively. Besides, the Ratio with Rattus norvegicus [3] worked out at 6.
As to `C=C1C2=CC(=O)CC[C@]2(C)[C@H]2CC[C@@]3(C)[C@@H](CC[C@@]34CCC(=O)O4)[C@@H]2[C@@H]1C(=O)OC`, the MED in the assay with Rattus norvegicus [1] and with Rattus norvegicus [2] was more than 2.4 mg in each case.
Regarding `COC(=O)[C@H]1[C@@H]2[C@H](CC[C@@]3(C)[C@H]2CC[C@@]32CCC(=O)O2)[C@@]2(C)CCC(=O)C=C2[C@H]1C`, the MED in the assay with Rattus norvegicus [1] is 0.47 mg; in the assay on Rattus norvegicus [2], more than 2.4 mg.
Take `CC(=O)S[C@@H]1CC2=CC(=O)CC[C@]2(C)[C@H]2CC[C@@]3(C)[C@@H](CC[C@@]34CCC(=O)O4)[C@H]12` [SPIRONOLACTONE]: the figures for the MED in the assay on Rattus norvegicus [1] and with Rattus norvegicus [2] were 0.33 mg and 0.48 mg, respectively.
